Experimental findings from patent US6693105B1, “Hydroxyl-containing compounds” (Cell Therapeutics, Inc., priority 1992, dated 2004) are described below.

One data set deals with IL-12 signaling. Description: IL-12 dependent in vitro T-helper cell (Th1) differentiation assay. As to conditions: anti-CD3 stimulated splenic T cells, 5 U/ml IL-12, compound present during T cell activation. The data set is classed as cell-based. The protocol:
This example illustrates the assay used to determine the effect of compounds of this invention in suppressing Th1 differentiation in vitro by blocking IL-12 signaling. Compounds are tested in an IL-12 dependent in vitro T-helper cell differentiation assay as described in LeGross et al., J. Exp. Med., 172:921-929 (1990). Recombinant IL-12 is used to induce Th1 differentiation. Splenic T cells are purified utilizing the antibodies RA3-3A1/6.1 (anti-B220), J11d and MAR8.5 (anti-rat kappa chain) to deplete the B cells via complement mediated toxicity following the procedure set forth in Klaus et al., J. Immunol., 149:1867-1875 (1992). Splenic T cells are stimulated at 5×10^5/ml with insoluble anti-CD3 alone (145-2C11, Pharmingen, San Diego, Calif.), or anti-CD3 and 5 U/ml IL-12, with and without each inventive compound. After seven days, equal numbers of viable cells are restimulated for 24 hours with anti-CD3 without the inventive compounds, and the supernatants are collected and assayed for IFN-γ production. IFN-γ and IL-4 levels are measured by Intertest kits from Genzyme specific for IFN-γ and IL-4.
Th1 differentiation is induced by culturing anti-CD3 stimulated T cells in the presence of exogenous IL-12. […] Neither the viability or recovery of T cells after one week of culture in the presence of the compound.

Data set [1] deals with PBMC (peripheral blood mononuclear cells). Description: two-way mixed lymphocyte reaction (MLR), proliferative response of PBMC to allogeneic stimulation. The data set is classed as cell-based, human. The conditions noted are these: for IC50: Homo sapiens, PBMC, mixed lymphocyte reaction; for immune modulating activity compared with PTX: two-way MLR, FIG. 1. The text has this:
Various in vitro assays can be used to measure effects of the inventive compounds to module immune activity and have antitumor activity using a variety of cellular types. For example, a mixed lymphocyte reaction (MLR) provides a valuable screening tool to determine biological activity of each inventive compound. In the MLR, PBMCs (peripheral blood mononuclear cells) are obtained by drawing whole blood from healthy volunteers in a heparinized container and diluted with an equal volume of hanks balanced salt solution (HBSS). This mixture is layered on a sucrose density gradient, such as a Ficoll-Hypaque® gradient (specific gravity 1.08), and centrifuged at 1000×g for 25 minutes at room temperature or cooler. PBMC are obtained from a band at a plasma-Ficoll interface, separated and washed at least twice in a saline solution, such as HBSS. Contaminating red cells are lysed, such as by ACK lysis for 10 min at 37° C., and the PBMCs are washed twice in HBSS. The pellet of purified PBMCs is resuspended in complete medium, such as RPMI 1640 plus 20% human inactivated serum. Proliferative response of PBMC to allogeneic stimulation is determined in a two-way MLR performed in a 96-well microtiter plate. Briefly, approximately 10^5 test purified PBMC cells in […] complete medium are co-cultured with approximately 10^5 autologous (control culture) or allogeneic (stimulated culture) PBMC cells, wherein the allogeneic cells are from HLA disparate individuals. Varying doses of compounds (drug) are added at the time of addition of cells to the microtiter plate. The cultures are incubated for 6 days at 37° C. in a 5% CO2 atmosphere. At the conclusion of the incubation tritiated thymidine is added (for example, 1 µCi/well of 40 to 60 Ci/mmole) and proliferation determined by liquid scintillation counting.
This example illustrates the effect of compounds nos. 1551 and 1559 as an immune modulator. […] 1551 and 1559 (see above for chemical names and structures).

In another data set the test system is murine thymocytes. Description: murine thymocyte proliferation co-stimulated by ConA and IL-2. The data set is classed as cell-based, Balb/C mice. As to conditions: Mus musculus, ConA 0.25 mg/ml and IL-2 15 U/ml, drug added two hours before, 4 days. The source says:
This example illustrates dose response curves used to generate 50% inhibition concentration (IC50) of inventive compounds nos. 1551 and 1564 for murine thymocyte proliferation, co-stimulated by Concanavalin A (ConA) and interleukin-2 alpha (IL-2). ConA, used to activate CD3, along with IL-2 co-stimulation, induces T-cell proliferation and differentiation. Thymuses, obtained from normal, female Balb/C mice, were dissociated and plated into 96-well plates at a density of 2×10^5 cells/well. ConA (0.25 mg/ml) and IL-2 (15 U/ml) were added to the wells. The cells were incubated for 4 days at 37° C. On day 4, the cells were pulsed with tritiated thymidine and incubated for an additional 4 hours. The amount of tritiated thymidine dye incorporated by the harvested cells was determined in a liquid scintillation counter. Drug doses (shown in FIGS. 7A and 7B) were added two hours prior to ConA and IL-2 activation. Background counts were less than 200 cpm. […] 1551 and 1564 are 28 and 49 μM.

For another data set, the system named is human stromal cells. As to the kind of experiment: PDGF-induced proliferation of human stromal cells. The data set is classed as cell-based. As to conditions: 50 ng/ml PDGF-BB, drug added one hour before, tritiated thymidine, FIG. 2. How it is done: (§1) Another assay for measuring activity of the inventive compounds involves determining PDGF, FGF or VEGF proliferative response using either mouse NIH-3T3 (Balb) cells or human-derived stromal cells. Human stromal cells are plated (e g., about 2000 cells per well) in defined media (e.g., 69% McCoy's, 12.5% fetal calf serum, 12.5% horse serum, 1% antibiotics, 1% glutamine, 1% vitamin supplement, 0.8% essential amino acids, 1% sodium pyruvate, 1% sodium bicarbonate, 0.4% non-essential amino acids and 0.36% hydrocortisone). Two to three days later, the stromal cells are starved in serum-free media. Twenty four hours later, the cells are treated with a stimulating agent, such as PDGF-AA, PDGF-BB or basic FGF (fibroblast growth factor) with or without IL-1 or TNF, and tritiated thymidine. Cell proliferation is determined by liquid scintillation counting.
This example illustrates a comparison of compounds nos. 1551 and 1559 on PDGF-induced (platelet derived growth factor) proliferation of human stromal cells. Human stromal cells were starved in serum-free media for 24 hours and then stimulated with 50 ng/ml of PDGF-BB. The drugs were added at various indicated concentrations one hour prior to PDGF stimulation. Tritiated thymidine was added at the time of PDGF stimulation. The cells were harvested and counted by liquid scintillation 24 hours after stimulation with PDGF. […]

The next data set concerns NIH-3T3 cells. Description: cytotoxicity on NIH-3T3 cells (BCECF viability stain). The data set is classed as cell-based, mouse. As to conditions: various concentrations, FIG. 4. The protocol:
(§2) This example provides data from an experiment measuring compound no. 1559 cytotoxicity on NIH-3T3 cells and their Ras transformed counterpart, NIH-3T3 Ras cells. The cells were treated with various concentrations of compound no. 1559 and later stained for cell viability with a fluorescence stain (BCECF) and analyzed using a Milipore fluorescence plate reader.

In data set [2] the test system is LD-2 cells, a human malignant melanoma cell line. Description: cytotoxicity on LD-2 cells (BCECF viability stain). The data set is classed as cell-based. The conditions noted are these: various concentrations, FIG. 3. The protocol:
This example provide data from an experiment measuring compound no. 1559 cytotoxicity on LD-2 cells, a human malignant melanoma cell line. The cells were treated with various concentrations of compound no. 1559 and later stained for cell viability with a fluorescence stain (BCECF) and analyzed using a Milipore fluorescence plate reader.

Another data set has as its system NIH-3T3 Ras cells. As to the kind of experiment: cytotoxicity on NIH-3T3 Ras cells (BCECF viability stain). The data set is classed as cell-based, mouse. The conditions noted are these: various concentrations, FIG. 4. The protocol:
as §2

The test system of the next data set is VCAM. As to the kind of experiment: TNF-induced cell surface expression of VCAM in HUVEC, flow cytometry. The data set is classed as cell-based, human. The conditions noted are these: for % of cells in gate (VCAM expression): 20 ng/ml TNF for 20 hours, 1559 at 0.25 mM one hour prior to TNF, TNF alone 34.5%, non-induced 0.4%. How it is done: This example illustrates the effect of compound no. 1559 on inhibiting cell surface expression of VCAM in human umbilical vein endothelial cells (HUVEC). The HUVEC cells were stimulated with 20 ng/ml TNF- for 20 hours and then stained for immunofluorescence using a monoclonal antibody recognizing VCAM, followed by a goat anti-mouse antibody conjugated to phycoerythrin. The cells were analyzed for antibody binding using flow cytometry. […] The top left histogram is non-TNF induced expression of VCAM (% of cells in gate A is 0.4%). […] 1559 (0.25 mM), one hour prior to TNF addition (% of cells in gate C is 24%).
This example illustrates the effect of compound no. 1559 on inhibiting cell surface expression of VCAM in HUVEC cells. The cells were stimulated with TNF- (20 ng/ml) for 20 hours and then stained for immunofluorescence using a monoclonal antibody recognizing VCAM, followed by a goat anti-mouse antibody conjugated to phycoerythrin. The cells were analyzed for antibody binding using flow cytometry. […] The mean fluorescence levels were decreased by compound no. 1559 treatment (1.7 fold decrease) when compared with control levels (TNF treatment, no drug).

A further data set deals with Balb/3T3 cells. Description: PDGF-BB-induced proliferation of Balb/3T3 cells. The data set is classed as cell-based, mouse. As to conditions: tritiated thymidine, FIGS. 8A and 9A. How it is done: as §1
Balb/3T3 cells respond vigorously to PDGF stimulation, and are useful in vitro models for further study of PDGF-induced proliferation. Disregulated PDGF-proliferative response has been linked to a variety of diseases, including, e.g., restenosis, atherosclerosis, fibrosis, and tumor cell angiogenesis. Cells were plated in low serum-containing medium for 24 hours prior to stimulation with various concentrations (as reported in FIGS. 8A and 9A) of inventive compounds nos.2556 and 3504 (FIGS. 8A and 9A, respectively). […]

Some results are limits rather than exact numbers.

Consider `CC(O)CCCCCCn1c(=O)c2c(ncn2C)n(C)c1=O` (centres unmarked) [Compound 1536, 1-(7-Hydroxyoctyl)-3,7-dimethylxanthine], for which, in the data set on IL-12 signaling, the “inhibition of Th1 differentiation enhanced by exogenous IL-12” value is recorded as “inhibited Th1 differentiation”. In data set [1], this compound showed an IC50 of 250 µM. In turn, `Cn1cnc2c1c(=O)n(CCCCCCC(O)CO)c(=O)n2C` (centres unmarked) [Compound 1538, 1-(7,8-Dihydroxyoctyl)-3,7-dimethylxanthine] had an IC50 in [1] greater than 500 µM.

`Cn1cnc2c1c(=O)n(CC(O)CO)c(=O)n2C` (centres unmarked) [Compound 1540, 1-(2,3-Dihydroxypropyl)-3,7-dimethylxanthine] displayed an IC50 in [1] greater than 500 µM. With `CC(O)CCCn1c(=O)c2c(ncn2C)n(C)c1=O` (centres unmarked) [Compound 1542, 1-(4-Hydroxypentyl)-3,7-dimethylxanthine], the IC50 in data set [1] was greater than 500 µM.

In data set [1], `Cn1cnc2c1c(=O)n(CCCCCCCO)c(=O)n2C` [Compound 1545, 1-(7-Hydroxyheptyl)-3,7-dimethylxanthine] returned an IC50 of 300 µM. Still for that read-out and setting: the figure for `Cn1cnc2c1c(=O)n(CCCCCCCCO)c(=O)n2C` [Compound 1546, 1-(8-Hydroxyoctyl)-3,7-dimethylxanthine] is 320 µM. On to `CC(O)CCCCCCCn1c(=O)c2c(ncn2C)n(C)c1=O` (centres unmarked) [Compound 1551, 1-(8-Hydroxynonyl)-3,7-dimethylxanthine], for which the midpoint of inhibition in the data set with murine thymocytes, the IC50, lay at 28 µM. Also, in [1], the IC50 came to 120 µM; the “immune modulating activity compared with PTX” value was “more effective and more potent than PTX”. Moreover, the “inhibition of PDGF-induced stimulation (proliferation)” value in the data set with human stromal cells was “inhibited PDGF-induced stimulation”. In [1], `Cn1cnc2c1c(=O)n(CCCCCCO)c(=O)n2C` [Compound 1556, 1-(6-Hydroxyhexyl)-3,7-dimethylxanthine] registered an IC50 greater than 500 µM. In the case of `Cn1cnc2c1c(=O)n(CCCCCCCCCCO)c(=O)n2C` [Compound 1559, 1-(10-Hydroxydecyl)-3,7-dimethylxanthine], the cytotoxicity result (in the data set with NIH-3T3 cells; in data set [2]; in the data set on NIH-3T3 Ras cells) was “cytotoxic at higher concentrations” throughout. The compound further registered an IC50 in data set [1] of 150 µM. The “immune modulating activity compared with PTX” value in data set [1] is “more effective and more potent than PTX”. Further, in the data set with human stromal cells, the “inhibition of PDGF-induced stimulation (proliferation)” value is on record as “inhibited PDGF-induced stimulation”. For the same compound, the “% of cells in gate (VCAM expression)” value in the data set on VCAM was 24%. Also, the “decrease of mean fluorescence levels (VCAM) compared with control (TNF treatment, no drug)” value with VCAM (TNF 20 ng/ml for 20 hours, FIG. 6) amounted to 1.7 fold decrease. For the compound `Cn1cnc2c1c(=O)n(CCCCCCCC(O)CO)c(=O)n2C` (centres unmarked) [Compound 1561, 1-(8,9-Dihydroxynonyl)-3,7-dimethylxanthine], the midpoint of inhibition in [1], the IC50, lay at 185 µM.

On to `Cn1cnc2c1c(=O)n(CCCCCCCCC(O)CO)c(=O)n2C` (centres unmarked) [Compound 1564, 1-(9,10-Dihydroxydecyl)-3,7-dimethylxanthine], for which the IC50 worked out at 49 µM with murine thymocytes and 210 µM in data set [1].

As to `Cn1cnc2c1c(=O)n(CCCCCCCCCCCC(O)CO)c(=O)n2C` (centres unmarked) [Compound 2556], in the data set on Balb/3T3 cells, the “inhibition of PDGF-induced proliferation” value is listed as “inhibited PDGF-induced proliferation”. In the case of `CC(O)CCCCCCCCCCCCn1c(=O)c2c(ncn2C)n(C)c1=O` (centres unmarked) [Compound 3504, 1-(13-Hydroxytetradecyl)-3,7-dimethylxanthine], in the data set with Balb/3T3 cells, the “inhibition of PDGF-induced proliferation” value was “inhibited PDGF-induced proliferation”. In the case of `CC(=O)CCCCn1c(=O)c2c(ncn2C)n(C)c1=O` [PTX, 1-(5-oxohexyl)-3,7-dimethylxanthine, reference compound], the “% of cells in gate (VCAM expression)” value in the data set with VCAM was 36.8%.

The IC50 is the concentration that gives 50% inhibition.
